# Measured values: PubChem BioAssay (NCI)
# Several values for one entry are separate records, joined by “and”; a condition that tells them apart may be missing. Equal values may be shown once.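 Five concentrations, 48 hours, 96-well plates. Abbreviation: GI50, concentration required for 50% inhibition of growth. TGI is the concentration that stops growth completely.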
# Experiments:
# Test in all cases: growth of human tumour cells (NCI), 48 h
# MOLT-4 leukemia = test system: MOLT-4 leukemia
# OVCAR-3 ovarian = test system: OVCAR-3 ovarian
# CAKI-1 renal = test system: CAKI-1 renal
# A498 renal = test system: A498 renal
# TK-10 renal = test system: TK-10 renal
# SK-OV-3 ovarian = test system: SK-OV-3 ovarian
# SF-268 CNS = test system: SF-268 CNS
# SK-MEL-28 melanoma = test system: SK-MEL-28 melanoma
# SN12C renal = test system: SN12C renal
# OVCAR-4 ovarian = test system: OVCAR-4 ovarian
Structure (SMILES),GI50 (MOLT-4 leukemia) [µM],TGI (MOLT-4 leukemia) [µM],GI50 (OVCAR-3 ovarian) [µM],TGI (OVCAR-3 ovarian),GI50 (CAKI-1 renal) [µM],TGI (CAKI-1 renal) [µM],GI50 (A498 renal) [µM],TGI (A498 renal) [µM],GI50 (TK-10 renal) [µM],TGI (TK-10 renal),GI50 (SK-OV-3 ovarian) [µM],TGI (SK-OV-3 ovarian) [µM],GI50 (SF-268 CNS) [µM],TGI (SF-268 CNS),GI50 (SK-MEL-28 melanoma) [µM],TGI (SK-MEL-28 melanoma) [µM],GI50 (SN12C renal) [µM],TGI (SN12C renal),GI50 (OVCAR-4 ovarian) [µM],TGI (OVCAR-4 ovarian) [µM]
CC(=O)[O-].CC(=O)[O-].CC(=O)[O-].CC(=O)[O-].[Mo+2].[Mo+2],> 100,> 100,> 100,> 100 µM,> 100,> 100,> 100,> 100,> 100,> 100 µM,> 100,> 100,> 100,> 100 µM,> 100,> 100,> 100,> 100 µM,> 100,> 100
COc1ccc(CC(C)C(C)Cc2ccc(OC)c(OC)c2)cc1OC (centres undefined),> 1400,> 1400,> 1400,> 1400 µM,> 1400,> 1400,> 1400,> 1400,> 1400,> 1400 µM,> 1400,> 1400,> 1400,> 1400 µM,> 1400,> 1400,> 1400,> 1400 µM,1140,> 1400
COc1cc2cnc3c4ccccc4ccc3c2cc1OC,–,> 100,–,> 100 µM,–,> 100,–,> 100,–,> 100 µM,–,> 100,–,> 100 µM,–,> 100,–,> 100 µM,–,> 100
O=C1C(Cl)=C(Nc2ccccc2)C(=O)c2ccccc21,3.34,> 100,1.67,3.15 µM,1.73,3.13,8.93,35.3,11,> 100 µM,5.43,18.7,1.69,3.27 µM,1.97,3.53,1.82,3.59 µM,1.63,3
NC(=O)c1cccc(Nc2nccc(Nc3cccc(F)c3)n2)c1,13.1,> 25,10,> 25 µM,7.24,> 25,4.3,16,6.51,> 23.7 µM,5.85,17.2,11.7,> 25 µM,8.71,> 25,7.98,> 25 µM,4.37,> 25
COc1c(Br)cc(Br)c(OC)c1-c1[nH]c(Br)c(Br)c1Br,–,21.8,–,14.3 µM,–,9.1,–,26,–,24.7 µM,–,28.1,–,15.1 µM,–,20,–,21.6 µM,–,16.3
CCCCCCCCCCN=C(c1ccc(N(C)C)cc1)c1ccc(N(C)C)cc1,0.416,30.8,0.428,> 24.9 µM,1.43,64.3,0.457,6.33,3.81,49.7 µM,1.44,40.3,3.4,67.9 µM,7.39,> 100,0.83,53.4 µM,3.29,> 83.6
CCN(CC)CC(=O)N1CCc2c([nH]c3ccccc23)C1c1cccnc1 (centres undefined),–,> 100,–,> 100 µM,–,> 100,–,> 100,–,> 100 µM,–,> 100,–,> 100 µM,–,> 100,–,> 100 µM,–,> 100
CC(=O)N[C@H](C(=O)N[C@@H](CCCNC(=N)N)C(=O)N[C@@H](CCCCN)C(=O)N[C@@H](CCCNC(=N)N)C(=O)N[C@]1(C)CCCCCC/C=C\CCC[C@@](C)(C(=O)N[C@@H](CCCNC(=N)N)C(=O)N[C@@H](CCC(=O)O)C(=O)N[C@@H](CC(C)C)C(=O)N[C@H](C(=O)N[C@@H](CCC(=O)O)C(N)=O)C(C)C)NC(=O)[C@H](CCC(N)=O)NC(=O)[C@H](CC(C)C)NC(=O)[C@H](CC(C)C)NC(=O)[C@H](CCCNC(=N)N)NC(=O)[C@H](CCCNC(=N)N)NC(=O)[C@H](CC(C)C)NC1=O)C(C)C,8.1,29.4,6.16,19.2 µM,2.06,11.7,9.32,22.4,1.6,8.8 µM,3.72,27.7,1.47,4.58 µM,2.64,21.7,2.33,> 50 µM,1.57,8.02
CCCCCCCCCCCCCCCCCCNC(=O)[C@H]1CSC(c2cccs2)N1 (some centres undefined),0.974,15.7,1.48,3.97 µM,1.03,2.09,> 50,> 50,1.79,> 50 µM,4.51,18.3,1.11,2.34 µM,0.725,1.43,0.885,1.76 µM,1.56,> 50
CC1(c2ccccc2)CC(c2ccccc2)=NO1 (centres undefined),–,> 100,–,> 100 µM,–,> 100,–,> 100,–,> 100 µM,–,> 100,–,> 100 µM,–,> 100,–,> 100 µM,–,> 100
Cc1ccc(S(=O)(=O)N/N=C(\c2nc3ccc([N+](=O)[O-])cc3[nH]c2=O)C(O)c2ccccc2Cl)cc1 (centres undefined),–,> 100,–,> 100 µM,–,> 100,–,> 100,–,> 100 µM,–,> 100,–,> 100 µM,–,> 100,–,> 100 µM,–,> 100
C[n+]1c2ccccc2cc2c(CNC(CCCN=C(N)N)C(=O)O)cccc21 (centres undefined),–,0.852,1.57,6.36 µM and 4.58 µM,–,2.07,–,8.7,0.967,2.07 µM and 2.35 µM,6.15,17.9,0.394,0.846 µM and 1.47 µM,–,3.65,–,2.18 µM and 2.99 µM,–,23.9
CC1(C)N=C(N)N=C(N)N1c1ccc(OCC(=O)Nc2ccccc2)c(Cl)c1,1.19,> 59.6,8.51,> 100 µM,> 85.9,> 100,> 58.1,> 100,32.4,> 100 µM,> 60.9,> 100,0.677,> 100 µM,> 58.8,> 100,0.647,> 100 µM,15.8,> 100
